Experimental data taken from BigSolDB 2.1.

O=C(CCc1ccc(O)cc1)c1c(O)cc(O)cc1O
solubility (mole fraction)
Conditions | 288.2 K | 298.2 K | 308.2 K | 318.2 K | 328.2 K
in 1,4-dioxane | 0.0211 | 0.0249 | 0.029 | 0.0331 | 0.0384
in ethanol | 0.0345 | 0.0373 | 0.0399 | 0.0421 | 0.0447
in ethyl acetate | 0.0266 | 0.0283 | 0.0309 | 0.0343 | 0.037
in isopropanol | 0.0351 | 0.0374 | 0.039 | 0.0411 | 0.0429
in methanol | 0.0245 | 0.0259 | 0.0275 | 0.0299 | 0.0317
in n-butanol | 0.0336 | 0.035 | 0.0362 | 0.0378 | 0.0394
in n-butyl acetate | 0.0258 | 0.0281 | 0.0305 | 0.0323 | 0.0346
in n-hexanol | 0.0289 | 0.0313 | 0.0332 | 0.0347 | 0.0366
in n-pentanol | 0.0301 | 0.0324 | 0.034 | 0.0357 | 0.0378
in n-propanol | 0.03 | 0.0318 | 0.0336 | 0.0358 | 0.0382
in sec-butanol | 0.0101 | 0.014 | 0.0175 | 0.0217 | 0.0244
in water | 3.46e-06 | 5.76e-06 | 1.12e-05 | 1.7e-05 | 2.7e-05
